Measurements taken from ChEMBL document CHEMBL3137667, “[Drug-induced liver injury; fourteenth updated edition of the bibliographic database of liver injuries and related drugs]” (Gastroenterol Clin Biol, 2004).
Where a SMILES comes first, the peptide text is derived from it. Bridges are numbered along the chain shown (N, C = ends). [ ]: non-standard residue; d: D form. The star is where a group is joined. Threoninol(2S,3R) = C[C@@H](O)[C@H](CO)N*

How the values were obtained:
[1] = human
[2] = Times to onset, minimal and maximal, observed in the indexed observations. [column 'DELAI' in source]; conditions: human
[3] = Presence of at least one case with successful reintroduction. [column 'REINT' in source]; conditions: human
[4] = Highest frequency of moderate liver toxicity observed during clinical trials, expressed as a percentage. [column '% BIOL' in source]; conditions: human
[5] = Comments (NB not yet translated). [column 'COMMENTAIRES' in source]; conditions: human
[6] = human; remark: listed apart in the source
[7] = human; remark: listed apart in the source
[8] = human; remark: listed apart in the source
[9] = human; remark: listed apart in the source
[10] = human; remark: listed apart in the source
[11] = Highest frequency of acute liver toxicity observed during clinical trials, expressed as a percentage. [column '% AIGUE' in source]; conditions: human
[12] = human, serum
[13] = human; remark: listed apart in the source
[14] = human; remark: listed apart in the source
[15] = human, serum; remark: listed apart in the source
[16] = human; remark: listed apart in the source
[17] = human, serum, 4383 h
[18] = Proposed mechanism(s) of liver damage. [column 'MEC' in source]; conditions: human
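For Hepatotoxicity (association with vascular disease) in this document: count of indexed literature references reporting vascular liver injury in humans, e.g. peliosis hepatitis, hepatic veno-occlusive disease or Budd-Chiari syndrome.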
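For Hepatotoxicity (benign tumour) in this document: value is a count of indexed literature references citing a benign tumour confirmed by histopathology.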
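For Hepatotoxicity (choleostasis) in this document: human cholestatic liver injury, shown by histopathology or by peak ALT or AST elevation over alkaline phosphatase ratio below 2, value counts indexed literature reports.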
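For Hepatotoxicity (chronic liver disease) in this document: chronic liver injury confirmed by histopathology or persistently raised serum aminotransferase activity beyond 6 months, value given as the count of indexed literature references.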
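For Hepatotoxicity (cirrhosis) in this document: value is a count of indexed literature references reporting cirrhosis confirmed by histopathology.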
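For Hepatotoxicity (cytolytic) in this document: human cytolytic liver injury, shown by histopathology or by a ratio above 5 of peak ALT or AST elevation to alkaline phosphatase elevation, value counts indexed references.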
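For Hepatotoxicity (granulomatous hepatitis) in this document: value is a count of indexed literature references reporting granulomatous liver disease confirmed by histopathology.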
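For Hepatotoxicity (malignant tumour) in this document: malignant tumour confirmed by histopathology, value gives the count of indexed literature references reporting it.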
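For Hepatotoxicity (severe hepatitis) in this document: human clinical data: severe hepatitis, meaning potentially life-threatening liver failure or clinically observed cases, the value counts how many indexed literature references report it.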
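For Hepatotoxicity (steatosis) in this document: steatosis confirmed by histopathology, value is the count of indexed references.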

SMILES	Hepatotoxicity (time to onset) [2]	Hepatotoxicity (successful reintroduction) [3]	Hepatotoxicity (comment) [5]	Hepatotoxicity (cirrhosis) [8]	Hepatotoxicity (malignant tumour) [9]	Hepatotoxicity (moderate) [12]	Hepatotoxicity (benign tumour) [13]	Hepatotoxicity (association with vascular disease) [14]	Hepatotoxicity (acute) [15]	Hepatotoxicity (steatosis) [16]	Hepatotoxicity (chronic liver disease) [17]	Hepatotoxicity (choleostasis) [1]	Hepatotoxicity (moderate) [4] [%]	Hepatotoxicity (granulomatous hepatitis) [6]	Hepatotoxicity (cytolytic) [7]	Hepatotoxicity (severe hepatitis) [10]	Hepatotoxicity (acute) [11] [%]	Hepatotoxicity (mechanism) [18]	further results
Sc1ncnc2nc[nH]c12 [MERCAPTOPURINE ANHYDROUS]	2 days - 2 years	yes	I/DOXORUBICINE CHOLANGITE	0	3	13	0	2	30	0	0	–	–	–	–	–	–	–	Hepatotoxicity (choleostasis) ([1]; Liver): 15; Hepatotoxicity (moderate) ([4]; Liver): 53%; Hepatotoxicity (granulomatous hepatitis) ([6]; Liver): 0; Hepatotoxicity (cytolytic) ([7]; Liver): 15; Hepatotoxicity (severe hepatitis) ([10]; Liver): 5; Hepatotoxicity (acute) ([11]; Liver): 4.9%; Hepatotoxicity (mechanism) ([18]; Liver): Dose-dependant
c1ccc2[nH]c(-c3cscn3)nc2c1 [THIABENDAZOLE]	2 weeks - 1.5 years	yes	CHOLESTASE_PROLONGEE DUCTOPENIE #CBP	2	0	2	0	0	13	0	0	13	36	0	2	0	0	Allergic	–
C[C@](N)(Cc1ccc(O)c(O)c1)C(=O)O [METHYLDOPA]	3 days - 12 years	yes	AC_ANTI-N/-ML/-MF RC/ALLOPURINOL	7	1	10	0	0	24	3	27	10	35	8	16	13	1.3	Allergic, Toxic	–
COc1ccc(Cc2nccc3cc(OC)c(OC)cc23)cc1OC [PAPAVERINE]	1 day - 11 years	yes	AC_ANTI-ADN/-N PERICHOLANGITE	3	0	11	0	0	9	0	4	6	53	1	7	0	3.3	Allergic, Toxic Metabolite	–
CC1=C(CC(=O)O)c2cc(F)ccc2/C1=C\c1ccc([S+](C)[O-])cc1 (stereo not drawn)	1 day - 1.5 years	yes	LITHIASE CHOLESTASE_PROLONGEE CHOLANGITE	0	0	25	0	0	29	4	0	22	14.9	0	12	3	0.2	Allergic	–
C[C@@H](O)[C@H](CO)NC(=O)[C@@H]1CSSC[C@H](NC(=O)[C@H](N)Cc2ccccc2)C(=O)N[C@@H](Cc2ccccc2)C(=O)N[C@H](Cc2c[nH]c3ccccc23)C(=O)N[C@@H](CCCCN)C(=O)N[C@@H]([C@@H](C)O)C(=O)N1 (H-[dF]CF[dW]KTC-{Threoninol(2S,3R)}; disulfide 2-7)	1 day - 14 months	yes	BOUE_BILIAIRE LITHIASE	0	0	8	0	0	3	0	0	1	17.6	0	3	1	0	Dose-dependant	–
Cc1ccc(-c2nc3ccc(C)cn3c2CC(=O)N(C)C)cc1 [ZOLPIDEM]	1 day - 3 days	yes	ENCEPHALOPATHIE	0	0	3	0	0	2	0	0	0	0.4	0	2	0	0	Dose-dependant	–
Nc1ccn([C@@H]2O[C@H](CO)[C@@H](O)[C@@H]2O)c(=O)n1 [CYTARABINE]	1 cure - 2 cures	yes	HCF HNR REACTIVATION_HVB MVO	0	0	33	0	7	14	0	0	–	–	–	–	–	–	–	Hepatotoxicity (choleostasis) ([1]; Liver): 3; Hepatotoxicity (moderate) ([4]; Liver): 75%; Hepatotoxicity (granulomatous hepatitis) ([6]; Liver): 0; Hepatotoxicity (cytolytic) ([7]; Liver): 6; Hepatotoxicity (severe hepatitis) ([10]; Liver): 6; Hepatotoxicity (acute) ([11]; Liver): 28.6%; Hepatotoxicity (mechanism) ([18]; Liver): Dose-dependant
CC(=O)N[C@@H](CS)C(=O)O [ACETYLCYSTEINE]	4 days	yes	PERICHOLANGITE	0	0	0	0	0	1	1	0	0	0	0	1	0	0	Dose-dependant	–
O=c1[nH]cnc2c1ncn2[C@H]1CC[C@@H](CO)O1 [DIDANOSINE]	5 days - 8 years	yes	REACTIVATION_HVB/HVC I/PARACETAMOL	1	0	18	0	0	27	20	1	6	38.1	0	21	13	12.5	Dose-dependant, Mitochondrial toxicity	–
Cc1onc(-c2ccccc2)c1C(=O)N[C@@H]1C(=O)N2[C@@H]1SC(C)(C)[C@@H]2C(=O)O [OXACILLIN]	2 days - 2.5 months	yes	RC/CEFALOTINE/NAFCILLINE	0	0	12	0	0	17	1	0	4	81	1	14	0	22	Allergic, Toxic Metabolite	–
